# In article PMC9662648 (Journal of the American Chemical Society, 2022):
# Where “and” joins values, the source holds several entries; their conditions need not be identical. Identical values can stand only once. Like-named read-outs stand apart in the source and are kept apart here. Square brackets hold non-standard residues; d marks the D form. Peptide text beside a SMILES is read from it. * marks the point of attachment. Cit = NC(=O)NCCC[C@H](N)C(=O)O; CH2Cl = ClC*
# Experiments:
# M^Pro = M^Pro (Severe acute respiratory syndrome coronavirus 2, UniProt P0DTD1); assay type: biochemical; conditions: for fold less potent M^Pro inhibitor than alkyne parent: probes lacking the alkyne versus their parents; for Ki: read-out: M^Pro Ki(app), apparent; for M^Pro kinact/KI: second-order rate constant for enzyme inactivation
# PL^Pro = PL^Pro (Severe acute respiratory syndrome coronavirus 2, UniProt P0DTD1); conditions: read-out: PL^Pro IC50
# Cathepsin B = Cathepsin B (Homo sapiens, UniProt P07858); experiment: Cathepsin B inhibition; assay type: biochemical; conditions: read-out: Cathepsin B IC50
# SARS-CoV2 [1] = assay type: cell-based; conditions: for EC50: read-out: EC50 for the inhibition of SARS-CoV-2 infection
# [2] = Pharmacokinetics in BALB-6c mice; conditions: for adverse events or signs of toxicity: at the tested doses
# SARS-CoV2 [3] = assay type: cell-based; conditions: Huh7.5 cells, 2 μM, 24 h, MOI 0.05
# SARS-CoV2 [4] = assay type: in vivo, K18-hACE2 transgenic mice; conditions: for SARS-CoV2-induced weight loss and lethality: intranasal, 10 mg/kg once daily for 3 days starting 2 h prior to infection; for lung histopathology: intraperitoneal treatment for 5 days; for SARS-CoV-2-induced weight loss and lethality: intraperitoneal, 25 mg/kg twice daily for 5 days, post-infection; for viral RNA loads and titers in lung tissue: versus vehicle control, 72 h treatment
# SARS-CoV2 pseudovirus = assay type: cell-based
# Cytotoxicity = assay type: cell-based
# Cathepsin L = Cathepsin L (Homo sapiens, UniProt P07711); experiment: Cathepsin L inhibition; assay type: biochemical; conditions: for IC50: read-out: Cathepsin L IC50
# Cathepsin L, sequence (P07711 114-333): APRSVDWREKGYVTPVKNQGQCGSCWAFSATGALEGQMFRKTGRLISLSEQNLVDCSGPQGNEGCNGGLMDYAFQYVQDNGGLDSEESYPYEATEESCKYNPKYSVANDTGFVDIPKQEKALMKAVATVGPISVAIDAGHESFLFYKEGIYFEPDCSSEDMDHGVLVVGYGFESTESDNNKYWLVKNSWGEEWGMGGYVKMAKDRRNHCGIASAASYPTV
# [5] = Weight loss in mock infected mice; conditions: mouse, in vivo
# SARS-CoV-2 = assay type: cell-based; conditions: relative to the DMSO control
# OC-43 = experiment: Inhibition of OC-43 in A549-hACE2 cells; assay type: cell-based; conditions: to a lesser extent than SARS-CoV2
# CatL = CatL (Homo sapiens, UniProt P07711); conditions: SM144 5 μM, 24 h, live A549-hACE2 cells
# CatL, sequence (P07711 114-333): as above
smiles,measurement,setting,value
NC(=O)NCCC[C@H](NC(=O)[C@H](Cc1ccccc1)NC(=O)[C@H](N)Cc1ccccc1)C(=O)CCl [D-FFCit-CMK] (H-[dF]-Phe-[Cit]-CH2Cl),fold less potent M^Pro inhibitor than alkyne parent,M^Pro,4–5 fold
same,IC50,PL^Pro,> 50 µM
N=C(N)NCCC[C@H](NC(=O)[C@H](Cc1ccccc1)NC(=O)[C@H](N)Cc1ccccc1)C(=O)CCl [D-FFR-CMK] (H-[dF]-Phe-Arg-CH2Cl),fold less potent M^Pro inhibitor than alkyne parent,M^Pro,4–5 fold
same,IC50,PL^Pro,5 ± 0.3 µM
CCOC(=O)C=CC(CC1CCNC1=O)NC(=O)C(Cc1ccc(F)cc1)NC(=O)C(Cc1ccccc1)NC(=O)OC(C)(C)C (stereo not drawn) [SM136],Ki,M^Pro,73 ± 4 µM
same,M^Pro kinact/KI,M^Pro,(7.7 ± 0.3)×10^2 M^−1min^−1
CCOC(=O)C=CC(CC1CCNC1=O)NC(=O)C(Cc1ccc(F)cc1)NC(=O)C(N)Cc1ccccc1 (stereo not drawn) [SM137],Ki,M^Pro,50 ± 6 µM
same,M^Pro kinact/KI,M^Pro,(1.8 ± 0.2)×10^3 M^−1min^−1
CCOC(=O)C=CC(CC1CCNC1=O)NC(=O)C(Cc1ccccc1)NC(=O)C(Cc1ccccc1)NC(=O)OC(C)(C)C (stereo not drawn) [SM140],Ki,M^Pro,16 ± 2 µM
same,M^Pro kinact/KI,M^Pro,(9.0 ± 0.2)×10^3 M^−1min^−1
same,IC50,Cathepsin B,> 50 µM
same,IC50,PL^Pro,> 50 µM
CCOC(=O)C=CC(CC1CCNC1=O)NC(=O)C(Cc1ccccc1)NC(=O)C(N)Cc1ccccc1 (stereo not drawn) [SM141],Ki,M^Pro,9 ± 1 µM
same,M^Pro kinact/KI,M^Pro,(2.0 ± 0.2)×10^4 M^−1min^−1
same,fold by which the antiviral EC50 is lower than potency for M^Pro inhibition,SARS-CoV2 [1],more than 100 fold
same,antiviral activity,"SARS-CoV2 [1]; A549-hACE2 cells, 2 μM, 24 h, MOI 0.05",almost completely blocks viral infection
same,EC50,SARS-CoV2 [1]; A549-hACE2 cells,0.0082 µM
same,EC90,"SARS-CoV2 [1]; read-out: EC90 for the inhibition of SARS-CoV-2 infection, A549-hACE2 cells",0.0221 µM
same,IC50,Cathepsin B,> 50 µM
same,% Bioavailability,[2]; IP,35.2%
same,AUCINF_obs,[2]; IP,49620 ng·min/mL
same,AUClast,[2]; IP,1.6 µM·h
same,Cmax,[2]; IP,2700 nM
same,T1/2,[2]; IP,48 min
same,Tmax,[2]; IP,8.4 min
same,AUCINF_obs,[2]; IV,42350 ng·min/mL
same,AUClast,[2]; IV,1.3 µM·h
same,CI_Obs,[2]; IV,71.5 mL/min/kg
same,Cmax,[2]; IV,3900 nM
same,MRTINF_obs,[2]; IV,24 min
same,T1/2,[2]; IV,48 min
same,Tmax,[2]; IV,4.8 min
same,VSS_obs,[2]; IV,1.6 L/kg
same,% Bioavailability,[2]; PO,5%
same,AUCINF_obs,[2]; PO,7325 ng·min/mL
same,AUClast,[2]; PO,0.14 µM·h
same,Cmax,[2]; PO,200 nM
same,Tmax,[2]; PO,48 min
same,adverse events or signs of toxicity,[2],no adverse events or signs of toxicity were observed
same,IC50,PL^Pro,> 50 µM
same,antiviral activity,SARS-CoV2 [3],almost completely blocks viral infection
same,SARS-CoV2-induced weight loss and lethality,SARS-CoV2 [4],protects mice from SARS-CoV2-induced weight loss and lethality
same,lung histopathology,SARS-CoV2 [4],significant reduction in lung inflammation and improved overall lung pathology
same,SARS-CoV-2-induced weight loss and lethality,SARS-CoV2 [4],protects K18-ACE2 mice from SARS-CoV-2-induced weight loss and lethality
same,viral RNA loads and titers in lung tissue,SARS-CoV2 [4],remarkably lower
same,additional inhibition of pseudovirus entry in CatL knockdown cells,SARS-CoV2 pseudovirus,did not show any significant additional inhibitory activity
same,concentration up to which no notable cytotoxicity is caused,Cytotoxicity,50000 nM
same,Cathepsin L kinact/KI,Cathepsin L,(1.9 ± 0.5)×10^5 M^−1min^−1
same,fold more potent for CatL inhibition than M^Pro,Cathepsin L; from IC50 and kinact/KI values,10 fold
same,IC50,Cathepsin L,0.06 ± 0.001 µM
same,weight loss in mock infected mice,[5],no significant weight loss
same,inhibition of live virus infection in CatL knockdown cells,SARS-CoV-2,do inhibit live virus infection
same,inhibition of OC-43,OC-43,inhibits OC-43
CCOC(=O)C=CC(CC1CCNC1=O)NC(=O)C(Cc1ccccc1)NC(=O)C(Cc1ccc(F)cc1)NC(=O)OC(C)(C)C (stereo not drawn) [SM142],Ki,M^Pro,10 ± 1 µM
same,M^Pro kinact/KI,M^Pro,(1.1 ± 0.3)×10^4 M^−1min^−1
same,fold by which the antiviral EC50 is lower than potency for M^Pro inhibition,SARS-CoV2 [1],more than 100 fold
same,EC50,SARS-CoV2 [1]; A549-hACE2 cells,0.0147 µM
same,IC50,Cathepsin B,40 ± 9 µM
same,AUCINF_obs,[2]; IV,18490 ng·min/mL
same,AUClast,[2]; IV,0.4 µM·h
same,CI_Obs,[2]; IV,169 mL/min/kg
same,Cmax,[2]; IV,400 nM
same,MRTINF_obs,[2]; IV,114 min
same,T1/2,[2]; IV,126 min
same,Tmax,[2]; IV,4.8 min
same,VSS_obs,[2]; IV,13.2 L/kg
same,% Bioavailability,[2]; PO,38% and 37.5%
same,AUCINF_obs,[2]; PO,20843 ng·min/mL
same,AUClast,[2]; PO,0.5 µM·h
same,Cmax,[2]; PO,600 nM
same,T1/2,[2]; PO,126 min
same,Tmax,[2]; PO,4.8 min
same,adverse events or signs of toxicity,[2],no adverse events or signs of toxicity were observed
same,volume of distribution,[2]; calculated,13 L/kg
same,IC50,PL^Pro,> 50 µM
same,SARS-CoV2-induced weight loss and lethality,SARS-CoV2 [4],protects mice from SARS-CoV2-induced weight loss and lethality
same,lung histopathology,SARS-CoV2 [4],significant reduction in lung inflammation and improved overall lung pathology
same,SARS-CoV-2-induced weight loss and lethality,SARS-CoV2 [4],protects K18-ACE2 mice from SARS-CoV-2-induced weight loss and lethality
same,viral RNA loads and titers in lung tissue,SARS-CoV2 [4],remarkably lower
same,additional inhibition of pseudovirus entry in CatL knockdown cells,SARS-CoV2 pseudovirus,did not show any significant additional inhibitory activity
same,Cathepsin L kinact/KI,Cathepsin L,(1.1 ± 0.01)×10^5 M^−1min^−1
same,IC50,Cathepsin L,0.145 ± 0.014 µM
same,weight loss in mock infected mice,[5],no significant weight loss
same,inhibition of live virus infection in CatL knockdown cells,SARS-CoV-2,do inhibit live virus infection
same,inhibition of OC-43,OC-43,inhibits OC-43
C#CCOCCC(=O)NC(Cc1ccc(F)cc1)C(=O)NC(Cc1ccccc1)C(=O)NC(C=CC(=O)OCC)CC1CCNC1=O (stereo not drawn) [SM144],Ki,M^Pro,4.5 ± 0.5 µM
same,M^Pro kinact/KI,M^Pro,(3.4 ± 0.1)×10^4 M^−1min^−1
same,antiviral activity compared with SM141 and SM142,SARS-CoV2 [1],significantly lower antiviral activity
same,IC50,Cathepsin B,> 50 µM
same,IC50,PL^Pro,> 50 µM
same,Cathepsin L kinact/KI,Cathepsin L,(6 ± 0.2)×10^4 M^−1min^−1
same,IC50,Cathepsin L,0.22 ± 0.026 µM
same,enrichment of CatL,CatL,> 128 fold
C#CCOCCC(=O)NC(Cc1ccccc1)C(=O)NC(Cc1ccccc1)C(=O)NC(C=CC(=O)OCC)CC1CCNC1=O (stereo not drawn) [SM145],Ki,M^Pro,5.3 ± 0.4 µM
same,antiviral activity compared with SM141 and SM142,SARS-CoV2 [1],significantly lower antiviral activity
same,IC50,Cathepsin B,> 50 µM
same,IC50,PL^Pro,> 50 µM
same,Cathepsin L kinact/KI,Cathepsin L,(2.5 ± 0.01)×10^4 M^−1min^−1
same,IC50,Cathepsin L,0.2 ± 0.004 µM
